Test results published in PubChem BioAssay (NCI).
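Exposure lasted 48 hours, with cells grown in 96-well plates and compounds tested at five concentrations. TGI denotes the concentration required for complete inhibition of growth.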

Tests used:
Assay in all cases: NCI anticancer screen, dose series, 48 h
RPMI-8226 leukemia = test system: RPMI-8226 leukemia
TK-10 renal = test system: TK-10 renal
KM12 colon = test system: KM12 colon
RXF 393 renal = test system: RXF 393 renal
CAKI-1 renal = test system: CAKI-1 renal
EKVX NSCLC = test system: EKVX NSCLC
HL-60(TB) leukemia = test system: HL-60(TB) leukemia
UACC-257 melanoma = test system: UACC-257 melanoma
HCT-116 colon = test system: HCT-116 colon
NCI-H226 lung = test system: NCI-H226 lung
SK-MEL-28 melanoma = test system: SK-MEL-28 melanoma
NCI-H460 lung = test system: NCI-H460 lung
786-0 renal = test system: 786-0 renal
MALME-3M melanoma = test system: MALME-3M melanoma
A549 NSCLC = test system: A549 NSCLC
HOP-62 NSCLC = test system: HOP-62 NSCLC
UO-31 renal = test system: UO-31 renal
NCI/ADR-RES ovarian = test system: NCI/ADR-RES ovarian
M14 melanoma = test system: M14 melanoma
SN12C renal = test system: SN12C renal
LOX IMVI melanoma = test system: LOX IMVI melanoma
BT-549 breast = test system: BT-549 breast
MOLT-4 leukemia = test system: MOLT-4 leukemia
SW-620 colon = test system: SW-620 colon
MCF7 breast = test system: MCF7 breast
HOP-92 NSCLC = test system: HOP-92 NSCLC
NCI-H23 lung = test system: NCI-H23 lung
SK-OV-3 ovarian = test system: SK-OV-3 ovarian
SF-295 CNS = test system: SF-295 CNS
UACC-62 melanoma = test system: UACC-62 melanoma
OVCAR-4 ovarian = test system: OVCAR-4 ovarian
ACHN renal = test system: ACHN renal
HS 578T breast = test system: HS 578T breast
SK-MEL-2 melanoma = test system: SK-MEL-2 melanoma
SK-MEL-5 melanoma = test system: SK-MEL-5 melanoma
SNB-75 CNS = test system: SNB-75 CNS
OVCAR-5 ovarian = test system: OVCAR-5 ovarian
A498 renal = test system: A498 renal
SF-268 CNS = test system: SF-268 CNS
SNB-19 CNS = test system: SNB-19 CNS
SF-539 CNS = test system: SF-539 CNS
T-47D breast = test system: T-47D breast
COLO 205 colon = test system: COLO 205 colon
MDA-MB-435 = test system: MDA-MB-435
IGROV1 ovarian = test system: IGROV1 ovarian
OVCAR-3 ovarian = test system: OVCAR-3 ovarian
OVCAR-8 ovarian = test system: OVCAR-8 ovarian
SR leukemia = test system: SR leukemia
PC-3 prostate = test system: PC-3 prostate
U251 CNS = test system: U251 CNS
MDA-MB-231 breast = test system: MDA-MB-231 breast
DU-145 prostate = test system: DU-145 prostate
MDA-N = test system: MDA-N
HCT-15 colon = test system: HCT-15 colon
K-562 leukemia = test system: K-562 leukemia
NCI-H522 lung = test system: NCI-H522 lung
HT29 colon = test system: HT29 colon
CCRF-CEM leukemia = test system: CCRF-CEM leukemia

Measured: TGI

CC(=O)Nc1nc2ncc(C=O)nc2c(=O)[nH]1
not listed: CCRF-CEM leukemia
> 100 µM: all other assays above

Cn1c(-c2ccccc2)c2cc3nc4ccccc4nc3cc2c1-c1ccccc1
80.8 µM: BT-549 breast
52.6 µM: HL-60(TB) leukemia
30.1 µM: RPMI-8226 leukemia
64.6 µM: MOLT-4 leukemia
30.2 µM: UACC-62 melanoma
44.1 µM: NCI-H23 lung
51.3 µM: SN12C renal
41.2 µM: SF-539 CNS
35.9 µM: HOP-62 NSCLC
9.71 µM: SK-MEL-5 melanoma
70.4 µM: PC-3 prostate
78.7 µM: MALME-3M melanoma
64.9 µM: SK-OV-3 ovarian
86.9 µM: SF-268 CNS
40.3 µM: NCI-H522 lung
54.4 µM: RXF 393 renal
94.2 µM: HOP-92 NSCLC
60.3 µM: SK-MEL-2 melanoma
25.2 µM: NCI-H460 lung
31.3 µM: M14 melanoma
83.3 µM: ACHN renal
82.6 µM: K-562 leukemia
45.9 µM: HS 578T breast
77.4 µM: MDA-MB-435
92.5 µM: SW-620 colon
65 µM: LOX IMVI melanoma
38.9 µM: MDA-N
24.2 µM: SR leukemia
53.4 µM: HCT-15 colon
72.1 µM: KM12 colon
89.8 µM: SF-295 CNS
59.5 µM: A498 renal
9.09 µM: COLO 205 colon
47.2 µM: MCF7 breast
not listed: NCI-H226 lung | 786-0 renal | CCRF-CEM leukemia
> 100 µM: all other assays above

C=C(C)c1ccccc1 (tested in a mixture with another compound)
not listed: CCRF-CEM leukemia
> 100 µM: all other assays above

O=C(O)/C=C/C=C/c1ccc2c(c1)OCO2
not listed: CCRF-CEM leukemia
> 100 µM: all other assays above

COC1CC(C)(NC(C)=O)C2OC(c3ccccc3)OCC2O1 (stereo not drawn)
not listed: SK-MEL-2 melanoma
> 100 µM: all other assays above
